From patent US6737383B1, “Herbicidal oxadiazolidines” (priority 1999, dated 2004)

Legend:
bedstraw = assay: Test B pre/postemergence bedstraw; assay type: in vivo, Galium aparine; conditions: Preemergence
Procedure, shortened: (§1)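 Test chemicals in a non-phytotoxic solvent mixture with surfactant were sprayed preemergence onto planted seeds and postemergence onto plants 2 to 18 cm tall (1- to 4-leaf stage). After twelve to sixteen days in a greenhouse, injury was visually rated against untreated controls from 0 (no effect) to 10 (complete control).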

blackgrass = assay: Test B pre/postemergence blackgrass; assay type: in vivo, Alopecurus myosuroides
Procedure, shortened: as §1

surinam grass = assay: Test B pre/postemergence surinam grass; assay type: in vivo, Brachiaria decumbens
Procedure, shortened: as §1

cocklebur = assay: Test B pre/postemergence cocklebur; assay type: in vivo, Xanthium strumarium
Procedure, shortened: as §1

corn = assay: Test B pre/postemergence corn; assay type: in vivo, Zea mays
Procedure, shortened: as §1

crabgrass = assay: Test B pre/postemergence crabgrass; assay type: in vivo, Digitaria sanguinalis
Procedure, shortened: as §1

giant foxtail = assay: Test B pre/postemergence giant foxtail; assay type: in vivo, Setaria faberii
Procedure, shortened: as §1

morningglory = assay: Test B pre/postemergence morningglory; assay type: in vivo, Ipomoea hederacea
Procedure, shortened: as §1

pigweed = assay: Test B pre/postemergence pigweed; assay type: in vivo, Amaranthus retroflexus
Procedure, shortened: as §1

soybean = assay: Test B pre/postemergence soybean; assay type: in vivo, Glycine max
Procedure, shortened: as §1

sugar beet = assay: Test B pre/postemergence sugar beet; assay type: in vivo, Beta vulgaris
Procedure, shortened: as §1

wild oat = assay: Test B pre/postemergence wild oat; assay type: in vivo, Avena fatua
Procedure, shortened: as §1

purple nutsedge = assay: Test B pre/postemergence purple nutsedge; assay type: in vivo, Cyperus rotundus
Procedure, shortened: as §1

rice = assay: Test B flood test rice; assay type: in vivo, Oryza sativa
Procedure, shortened: (§2)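 Each value is a visual injury score relative to controls, with 10 meaning complete control and 0 no effect. Evaluation took place twelve to sixteen days after the 2-leaf-stage plants were treated and kept in the greenhouse.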

smallflower flatsedge = assay: Test B flood test smallflower flatsedge; assay type: in vivo, Cyperus difformis
Procedure, shortened: as §2

duck salad = assay: Test B flood test duck salad; assay type: in vivo, Heteranthera limosa
Procedure, shortened: as §2

[1] = Postemergence, Rate 125 g/ha, scale of 0 to 10 where 0 is no effect and 10 is complete control
[2] = Preemergence, Rate 62 g/ha, scale 0 to 10 (0 no effect, 10 complete control)
[3] = Preemergence, Rate 125 g/ha, 0 is no effect, 10 is complete control
[4] = Preemergence, Rate 250 g/ha, scale 0 to 10, 0 is no effect, 10 is complete control
[5] = Preemergence, Rate 500 g/ha, scale 0 to 10 (0 no effect, 10 complete control)
[6] = Rate 62 g/ha, Postemergence, scale of 0 to 10 where 0 is no effect and 10 is complete control
[7] = Rate 250 g/ha, Postemergence, scale 0 to 10, 0 is no effect, 10 is complete control
[8] = Rate 500 g/ha, Postemergence, scale 0 to 10, 0 no effect, 10 complete control
[9] = Postemergence (flood test species), Rate 125 g/ha, scale of 0 to 10 where 0 is no effect and 10 is complete control
[10] = Rate 62 g/ha, Postemergence section, flood test species, scale of 0 to 10 where 0 is no effect and 10 is complete control
[11] = Rate 250 g/ha, Postemergence (flood test), scale 0 to 10, 0 is no effect, 10 is complete control
[12] = Rate 250 g/ha, headed Pre-emergence (flood test species), scale 0 to 10 (0 no effect, 10 complete control)
[13] = Rate 500 g/ha, headed Pre-emergence (flood test species), scale 0 to 10 (0 no effect, 10 complete control)
[14] = Rate 500 g/ha, listed under Postemergence (flood test species), scale 0 to 10, 0 no effect, 10 complete control
[15] = Rate 1000 g/ha, Pre-emergence (as headed), scale 0 to 10
[16] = Rate 2000 g/ha, Pre-emergence (as headed), scale 0 to 10

CC(C)N(C(=O)n1oc(=O)n(-c2cnn(C)c2)c1=O)c1ccccc1 [Compound 123]
9: Crabgrass plant response rating (crabgrass; [8]) | Giant foxtail plant response rating (0 to 10 scale) (giant foxtail; [3]) | Giant foxtail plant response rating (giant foxtail; [4]) | Giant foxtail plant response rating (giant foxtail; [8]) | Morningglory plant response rating (morningglory; [1]) | Redroot pigweed plant response rating (pigweed; [5])
8: Plant response rating, Crabgrass (crabgrass; [7]) | Plant response rating, Giant foxtail (giant foxtail; [7]) | Morningglory plant response rating (morningglory; [6])
7: Blackgrass plant response rating (blackgrass; [5]) | Blackgrass plant response rating (blackgrass; [8]) | Crabgrass plant response rating (crabgrass; [5]) | Giant foxtail plant response rating (giant foxtail; [2]) | Sugarbeets plant response rating (sugar beet; [5])
6: Blackgrass plant response rating (blackgrass; [1]) | Plant response rating, Blackgrass (blackgrass; [7]) | Wild oats plant response rating (wild oat; [4]) | Wild oats plant response rating (wild oat; [5])
0: Bedstraw plant response rating (bedstraw; Rate 62 g/ha, scale 0 to 10 (0 no effect, 10 complete control)) | Bedstraw plant response rating (0 to 10 scale) (bedstraw; Rate 125 g/ha, 0 is no effect, 10 is complete control) | Bedstraw plant response rating (bedstraw; Rate 250 g/ha, scale 0 to 10, 0 is no effect, 10 is complete control) | Bedstraw plant response rating (bedstraw; Rate 500 g/ha, scale 0 to 10 (0 no effect, 10 complete control)) | Blackgrass plant response rating (blackgrass; [2]) | Blackgrass plant response rating (0 to 10 scale) (blackgrass; [3]) | B. signalgrass plant response rating (surinam grass; Postemergence, Rate 62 g/ha, scale 0 to 10, 0 is no effect, 10 is complete control) | B. signalgrass plant response rating (surinam grass; [1]) | B. signalgrass plant response rating (surinam grass; [2]) | B. signalgrass plant response rating (0 to 10 scale) (surinam grass; [3]) | B. signalgrass plant response rating (surinam grass; [4]) | Cocklebur plant response rating (cocklebur; [1]) | Cocklebur plant response rating (cocklebur; [2]) | Cocklebur plant response rating (0 to 10 scale) (cocklebur; [3]) | Cocklebur plant response rating (cocklebur; [4]) | Cocklebur plant response rating (cocklebur; [5]) | Cocklebur plant response rating (cocklebur; [6]) | Plant response rating, Cocklebur (cocklebur; [7]) | Corn plant response rating (corn; [1]) | Corn plant response rating (corn; [2]) | Corn plant response rating (0 to 10 scale) (corn; [3]) | Corn plant response rating (corn; [4]) | Corn plant response rating (corn; [5]) | Corn plant response rating (corn; [6]) | Plant response rating, Corn (corn; [7]) | Corn plant response rating (corn; [8]) | Crabgrass plant response rating (crabgrass; [6]) | Morningglory plant response rating (morningglory; [2]) | Morningglory plant response rating (0 to 10 scale) (morningglory; [3]) | Morningglory plant response rating (morningglory; [4]) | Morningglory plant response rating (morningglory; [5]) | Redroot pigweed plant response rating (pigweed; [2]) | Redroot pigweed plant response rating (pigweed; [6]) | Soybean plant response rating (soybean; [2]) | Soybean plant response rating (0 to 10 scale) (soybean; [3]) | Soybean plant response rating (soybean; [4]) | Soybean plant response rating (soybean; [5]) | Sugarbeets plant response rating (sugar beet; [1]) | Sugarbeets plant response rating (sugar beet; [2]) | Sugarbeets plant response rating (sugar beet; [6]) | Wild oats plant response rating (wild oat; [1]) | Wild oats plant response rating (wild oat; [2]) | Wild oats plant response rating (wild oat; [6]) | Plant response rating, Wild oats (wild oat; [7]) | Nutsedge plant response rating (purple nutsedge; [1]) | Nutsedge plant response rating (purple nutsedge; [2]) | Nutsedge plant response rating (0 to 10 scale) (purple nutsedge; [3]) | Nutsedge plant response rating (purple nutsedge; [4]) | Nutsedge plant response rating (purple nutsedge; [5]) | Nutsedge plant response rating (purple nutsedge; [6]) | Plant response rating, Nutsedge (purple nutsedge; [7]) | Nutsedge plant response rating (purple nutsedge; [8]) | Rice plant response rating (rice; [9]) | Rice plant response rating (rice; [10]) | Plant response rating, Rice (rice; [11]) | Rice plant response rating (rice; [12]) | Plant response rating, Rice (rice; [13]) | Rice plant response rating (rice; [14]) | Rice plant response rating (rice; [15]) | Rice plant response rating (rice; [16]) | S. Flatsedge plant response rating (smallflower flatsedge; [9]) | S. Flatsedge plant response rating (smallflower flatsedge; Pre-emergence, Rate 1000 g/ha, scale 0 to 10 (0 no effect, 10 complete control)) | S. Flatsedge plant response rating (smallflower flatsedge; [10]) | Plant response rating, S. Flatsedge (smallflower flatsedge; [11]) | S. Flatsedge plant response rating (smallflower flatsedge; [12]) | Plant response rating, S. Flatsedge (smallflower flatsedge; [13]) | S. Flatsedge plant response rating (smallflower flatsedge; [14]) | S. Flatsedge plant response rating (smallflower flatsedge; [16]) | Ducksalad plant response rating (duck salad; [9]) | Ducksalad plant response rating (duck salad; [10]) | Plant response rating, Ducksalad (duck salad; [11]) | Ducksalad plant response rating (duck salad; [12]) | Plant response rating, Ducksalad (duck salad; [13]) | Ducksalad plant response rating (duck salad; [14]) | Ducksalad plant response rating (duck salad; [15]) | Ducksalad plant response rating (duck salad; [16])
10: Giant foxtail plant response rating (giant foxtail; [5]) | Plant response rating, Morningglory (morningglory; [7]) | Morningglory plant response rating (morningglory; [8])
5: B. signalgrass plant response rating (surinam grass; Rate 500 g/ha, Postemergence, scale of 0 to 10 where 0 is no effect and 10 is complete control) | Crabgrass plant response rating (0 to 10 scale) (crabgrass; [3]) | Crabgrass plant response rating (crabgrass; [4]) | Giant foxtail plant response rating (giant foxtail; [1]) | Redroot pigweed plant response rating (pigweed; [4]) | Sugarbeets plant response rating (sugar beet; [4])
2: Blackgrass plant response rating (blackgrass; [6]) | B. signalgrass plant response rating (surinam grass; [5]) | Plant response rating, Redroot pigweed (pigweed; [7]) | Redroot pigweed plant response rating (pigweed; [8]) | Soybean plant response rating (soybean; [6]) | Sugarbeets plant response rating (sugar beet; [8]) | Wild oats plant response rating (0 to 10 scale) (wild oat; [3]) | Wild oats plant response rating (wild oat; [8])
1: Cocklebur plant response rating (cocklebur; [8]) | Plant response rating, Sugarbeets (sugar beet; [7])
3: Plant response rating, B. signalgrass (surinam grass; [7]) | Giant foxtail plant response rating (giant foxtail; [6]) | Sugarbeets plant response rating (0 to 10 scale) (sugar beet; [3])
4: Blackgrass plant response rating (blackgrass; [4]) | Crabgrass plant response rating (crabgrass; [1]) | Crabgrass plant response rating (crabgrass; [2]) | Redroot pigweed plant response rating (0 to 10 scale) (pigweed; [3]) | Soybean plant response rating (soybean; [1]) | Plant response rating, Soybean (soybean; [7]) | Soybean plant response rating (soybean; [8])
